In brackets after ≈: the same amount, converted by molar mass. Read-outs that look alike come from different tables or passages of the source.
Assays:
Assay in all cases: microbe, parasite or virus in culture
S. aureus 25923 = format: cell-based, Staphylococcus aureus; details: MHB, 37 °C 24 h, peptides 0.5-128 μM, lowest concentration inhibiting 95% of growth, three independent experiments, read-out: MICs, S. aureus 25923
Experimental: (§1) The peptide antimicrobial activity was determined according to the Clinical and Laboratory Standards Institute method, with modifications. Bacteria concentration was measured by ultraviolet spectrophotometer, and fungi concentration was confirmed by McMillan’s turbidimetric method, which compared the fungi solution with the standard McFarland tube in front of the horizontal line on the paper with the naked eye. Because the light has different refract in different liquids. The standard solution is composed of sulfuric acid and barium chloride, which is equivalent to 1*10^8 CFU fungi. After cultivation, the growth of fungi and bacteria was measured by TECAN automatic enzyme label instrument. Briefly, bacterial cells were cultured in MHB until logarithmic phase, yeast colonies cultured in Yeast Peptone Dextrose Agar (YPDA) were picked and diluted in RPMI 1640 growth medium buffered with morpholine propane sulfonic acid (MOPS), and then 50 μL of bacterial or fungi cell solution (0.5–1 × 10^4 CFU/mL) was added to each well of sterile 96-well plates. Each well contained 50 μL of AMPs dissolved in BSA; the final concentrations of the peptides ranged from 0.5 to 128 μM. The lowest concentration of peptide with no microbial growth being observed were measured after incubation at 37 °C for 24 h for bacteria or at 28 °C for 48 h for fungi. Broth with microbial cells and un-inoculated broth were used as positive control and negative controls, respectively.

S. aureus 29213 = format: cell-based, Staphylococcus aureus; details: MHB, 37 °C 24 h, peptides 0.5-128 μM, lowest concentration inhibiting 95% of growth, three independent experiments, read-out: MICs, S. aureus 29213
Experimental: as §1

L. rhamnosus 1.0385 = format: cell-based, Lactobacillus rhamnosus; details: 37 °C 24 h, peptides 0.5-128 μM, lowest concentration inhibiting 95% of growth, three independent experiments, read-out: MICs, L. rhamnosus 1.0385
Experimental: as §1

L. rhamnosus 1.0911 = format: cell-based, Lactobacillus rhamnosus; details: 37 °C 24 h, peptides 0.5-128 μM, lowest concentration inhibiting 95% of growth, three independent experiments, read-out: MICs, L. rhamnosus 1.0911
Experimental: as §1

[1] = system: C. parapsilosis cgmcc 2.3989; format: cell-based; details: RPMI 1640 buffered with MOPS, 28 °C 48 h, 0.5-128 μM, read-out: MICs, C. parapsilosis cgmcc 2.3989
Experimental: as §1

[2] = system: C. tropicalis cgmcc 2.1975; format: cell-based; details: RPMI 1640 buffered with MOPS, 28 °C 48 h, 0.5-128 μM, read-out: MICs, C. tropicalis cgmcc 2.1975
Experimental: as §1

L. plantarum 7469 = format: cell-based; details: 37 °C 24 h, peptides 0.5-128 μM, lowest concentration inhibiting 95% of growth, three independent experiments, read-out: MICs, L. plantarum 7469
Experimental: as §1

S. thermophilus YM-C = format: cell-based, Streptococcus thermophiles; details: 37 °C 24 h, peptides 0.5-128 μM, lowest concentration inhibiting 95% of growth, three independent experiments, read-out: MICs, S. thermophilus YM-C
Experimental: as §1

[3] = system: C. albicans Isolated from Alveolar Fluid; format: cell-based, Candida albicans; details: RPMI 1640 buffered with MOPS, 28 °C 48 h, 0.5-128 μM, read-out: MICs, C. albicans Isolated from Alveolar Fluid
Experimental: as §1

C. albicans SP3902 = format: cell-based, Candida albicans; details: clinical isolate, RPMI 1640 buffered with MOPS, 28 °C 48 h, 0.5-128 μM, read-out: MICs, C. albicans SP3902
Experimental: as §1

C. albicans SP3903 = format: cell-based, Candida albicans; details: clinical isolate, RPMI 1640 buffered with MOPS, 28 °C 48 h, 0.5-128 μM, read-out: MICs, C. albicans SP3903
Experimental: as §1

C. albicans SP3937 = format: cell-based, Candida albicans; details: clinical isolate, RPMI 1640 buffered with MOPS, 28 °C 48 h, 0.5-128 μM, read-out: MICs, C. albicans SP3937
Experimental: as §1

C. albicans cgmcc 2.2086 = format: cell-based, Candida albicans; details: RPMI 1640 buffered with MOPS, 28 °C 48 h, 0.5-128 μM, read-out: MICs, C. albicans cgmcc 2.2086
Experimental: as §1

[4] = system: Fluconazole-resistant C. albicans 56214; details: for MIC: Candida albicans, 48 h, read-out: MICs, C. albicans 56214
Experimental: as §1, with “Bacteria concentration was measured by ultraviolet spectrophotometer, and fungi concentration was confirmed by McMillan’s turbidimetric method, which compared the fungi solution with the standard McFarland tube in front of the horizontal line on the paper with the naked eye.” left out, “The lowest concentration of peptide with no microbial growth being observed were measured after incubation at 37 °C for 24 h for bacteria or at 28 °C for 48 h for fungi.” left out

[5] = Lacticaseibacillus rhamnosus, 1.0385
[6] = Lacticaseibacillus rhamnosus, 1.0911
[7] = Lodderomyces parapsilosis, CGMCC2
[8] = Lactiplantibacillus plantarum, 7469

SMILES	MIC (S. aureus 25923; Staphylococcus aureus, 25923) [µM]	MIC (S. aureus 29213; Staphylococcus aureus, 29213) [µM]	MIC (L. rhamnosus 1.0385; [5]) [µM]	MIC (L. rhamnosus 1.0911; [6]) [µM]	MIC [1, 7] [µM]	MIC ([2]; Candida tropicalis, CGMCC2) [µM]	MIC (L. plantarum 7469; [8]) [µM]	MIC (S. thermophilus YM-C; Streptococcus thermophilus) [µM]	MIC ([3]; Candida albicans) [µM]	MIC (C. albicans SP3902; Candida albicans, SP3902) [µM]	MIC (C. albicans SP3903; Candida albicans, SP3903) [µM]	MIC (C. albicans SP3937; Candida albicans, SP3937) [µM]	MIC (C. albicans cgmcc 2.2086; Candida albicans, CGMCC2) [µM]	MIC [4] [µM]	further results
C[C@@H]1[C@H](O)[C@@H](C)/C=C/C=C/C=C/C=C/C=C/C=C/C=C/[C@H](O[C@@H]2O[C@H](C)[C@@H](O)[C@H](N)[C@@H]2O)C[C@@H]2O[C@](O)(C[C@@H](O)C[C@@H](O)[C@H](O)CC[C@@H](O)C[C@@H](O)CC(=O)O[C@H]1C)C[C@H](O)[C@H]2C(=O)O [Amphotericin B, reference compound]	> 128	> 128	> 128	> 128	2 (≈ 1.85 µg/mL)	1 (≈ 0.924 µg/mL)	> 128	> 128	1 (≈ 0.924 µg/mL)	0.5 (≈ 0.462 µg/mL)	0.5 (≈ 0.462 µg/mL)	0.5 (≈ 0.462 µg/mL)	1 (≈ 0.924 µg/mL)	1 (≈ 0.924 µg/mL)	
OC(Cn1cncn1)(Cn1cncn1)c1ccc(F)cc1F [Fluconazole, reference compound]	> 128	> 128	> 128	> 128	4 (≈ 1.23 µg/mL)	4 (≈ 1.23 µg/mL)	> 128	> 128	2 (≈ 0.613 µg/mL)	16 (≈ 4.9 µg/mL)	32 (≈ 9.8 µg/mL)	16 (≈ 4.9 µg/mL)	1 (≈ 0.306 µg/mL)	> 128	
CC[C@H](C)[C@H](NC(=O)CN)C(=O)NCC(=O)N[C@@H](C)C(=O)N[C@H](C(=O)N[C@@H](CC(C)C)C(=O)N[C@@H](CCCCN)C(=O)N[C@H](C(=O)N[C@@H](CC(C)C)C(=O)N[C@H](C(=O)N[C@H](C(=O)NCC(=O)N[C@@H](CC(C)C)C(=O)N1CCC[C@H]1C(=O)N[C@@H](C)C(=O)N[C@@H](CC(C)C)C(=O)N[C@H](C(=O)N[C@@H](CO)C(=O)N[C@@H](Cc1c[nH]c2ccccc12)C(=O)N[C@H](C(=O)N[C@@H](CCCCN)C(=O)N[C@@H](CCCNC(=N)N)C(=O)N[C@@H](CCCCN)C(=O)N[C@@H](CCCNC(=N)N)C(=O)N[C@@H](CCC(N)=O)C(=O)N[C@@H](CCC(N)=O)C(N)=O)[C@@H](C)CC)[C@@H](C)CC)[C@@H](C)O)[C@@H](C)O)C(C)C)C(C)C [Melittin, reference compound]															MIC (S. aureus 25923): 2 µM (≈ 5.69 µg/mL); MIC (S. aureus 29213): 2 µM (≈ 5.69 µg/mL); MIC (L. rhamnosus 1.0385): >128 µM; MIC (L. rhamnosus 1.0911): >128 µM; MIC [1]: 2 µM (≈ 5.69 µg/mL); MIC [2]: 2 µM (≈ 5.69 µg/mL); MIC (L. plantarum 7469): >128 µM; MIC (S. thermophilus YM-C): >128 µM; MIC [3]: 4 µM (≈ 11.4 µg/mL); MIC (C. albicans SP3902): 4 µM (≈ 11.4 µg/mL); MIC (C. albicans SP3903): 2 µM (≈ 5.69 µg/mL); MIC (C. albicans SP3937): 4 µM (≈ 11.4 µg/mL); MIC (C. albicans cgmcc 2.2086): 4 µM (≈ 11.4 µg/mL); MICs, C. albicans 56214 ([4]; fluconazole-resistant strain, RPMI 1640 buffered with MOPS, 28 °C 48 h, 0.5-128 μM): 2 µM
